Consider eleven molecules from patent US20250215016A1, “ISOXAZOLE-HETEROCYCLIC DERIVATIVE, PHARMACEUTICAL COMPOSITION AND USE” (SHANGHAI SIMR BIOTECHNOLOGY CO., LTD, priority 2022, published 2025).

The nature of series [1]: Thermodynamic solubility in simulated intestinal fluid (FaSSIF). The conditions noted are these: 37° C., 1000 rpm. The class given is physicochemical. The protocol: 50 mM of phosphate buffer, pH=7.4:0.39 g of NaH2PO4·2H2O, 1.4025 g of Na2HPO4 were weighed, placed into an Erlenmeyer flask, dissolved with the addition of 240 ml of water, homogenously mixed, adjusted to pH 7.4 with 10 M NaOH solution, transferred into a 250 ml volumetric flask and diluted with water to the scale.
Simulated intestinal fluid FaSSIF: 54.76 mg of FaSSIF-V2 (Biorelevant, batch. V2FAS-0619-A, lot. V2FAS01) was weighed, and added to 15 ml of buffer, and after dissolution, the solution was made up to 30 ml and left to stand at room temperature for 1 hour for use.
Waters e2695 HPLC high performance liquid chromatography, Mettler XSE105 analytical balance.
Stock solution containing 10 mM of each test compound was formulated using DMSO, diluted into […] standard curve solution using diluent (ACN:PB buffer with a volume ratio of 50:50), and tested by HPLC to obtain a standard curve of concentration vs peak area of each test compound.
Thermodynamic solubility in simulated intestinal fluid (TS in FaSSIF). About 0.3 mg of each sample (test compound) was weighed, added into 1.5 mL of FaSSIF solution, two samples in parallel, shaken at 1000 rpm and 37° C. for 4 hours, and filtered, 1 mL of primary filtrate was discarded, then 400 μL of subsequent filtrate was taken, and tested by using a high performance liquid chromatograph (UV).

Another series has as its target α5-GABAA receptor (Homo sapiens (Human), UniProt P18507+P31644). Put plainly: Whole-cell patch clamp electrophysiology, inverse regulation activity in α5β3γ2-HEK293 cells. Format: cell-based. The conditions noted are these: compound 100 nM; GABA 0.05-0.06 μM (about EC7-8); clamped at −60 mV; read-out: Inverse regulation efficiency to α5-GABAA receptor. Put shortly:
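HEK293 cells expressing α5β3γ2 recorded whole-cell at −60 mV holding potential, GABA 0.05-0.06 μM (about EC7-8) applied, then compound at 100 nM final with GABA. pH 7.4 extracellular, CsCl-based pipette solution. Inverse regulation efficiency = (Itreatment−Igaba)/(Igaba−Iprebaseline)×100%.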

Where [2] appears, read: simulated intestinal fluid (FaSSIF), thermodynamic from solid.

SMILES strings stand for the structures. In brackets after ≈: the same amount, converted by molar mass.

α5-GABAA receptor, sequence (P31644 32-462): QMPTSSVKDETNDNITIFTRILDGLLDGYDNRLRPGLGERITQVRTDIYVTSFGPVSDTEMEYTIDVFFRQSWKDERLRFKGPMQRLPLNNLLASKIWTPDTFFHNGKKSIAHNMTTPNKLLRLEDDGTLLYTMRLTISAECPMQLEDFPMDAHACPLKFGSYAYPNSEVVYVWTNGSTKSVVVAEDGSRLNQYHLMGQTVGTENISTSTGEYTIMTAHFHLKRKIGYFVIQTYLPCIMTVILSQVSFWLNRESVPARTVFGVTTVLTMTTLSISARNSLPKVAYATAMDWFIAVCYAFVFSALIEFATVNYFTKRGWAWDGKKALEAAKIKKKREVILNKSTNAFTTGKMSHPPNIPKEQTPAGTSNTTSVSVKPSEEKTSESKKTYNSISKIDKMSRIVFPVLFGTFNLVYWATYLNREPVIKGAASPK
α5-GABAA receptor, sequence (P28472 26-473 partner): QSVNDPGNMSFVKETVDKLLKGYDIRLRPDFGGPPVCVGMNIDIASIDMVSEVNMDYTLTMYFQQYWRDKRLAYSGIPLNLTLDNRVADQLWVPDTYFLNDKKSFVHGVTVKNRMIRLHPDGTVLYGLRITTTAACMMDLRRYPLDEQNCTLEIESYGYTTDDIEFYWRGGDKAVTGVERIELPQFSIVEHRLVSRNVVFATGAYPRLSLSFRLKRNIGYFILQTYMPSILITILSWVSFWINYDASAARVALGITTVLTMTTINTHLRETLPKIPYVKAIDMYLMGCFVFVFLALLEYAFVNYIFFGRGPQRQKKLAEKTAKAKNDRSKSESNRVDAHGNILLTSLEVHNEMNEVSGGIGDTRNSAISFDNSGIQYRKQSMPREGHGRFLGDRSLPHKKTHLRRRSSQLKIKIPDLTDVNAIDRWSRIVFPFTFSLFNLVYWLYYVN
α5-GABAA receptor, sequence (P18507 other isoform, or with tags, fused parts or gaps): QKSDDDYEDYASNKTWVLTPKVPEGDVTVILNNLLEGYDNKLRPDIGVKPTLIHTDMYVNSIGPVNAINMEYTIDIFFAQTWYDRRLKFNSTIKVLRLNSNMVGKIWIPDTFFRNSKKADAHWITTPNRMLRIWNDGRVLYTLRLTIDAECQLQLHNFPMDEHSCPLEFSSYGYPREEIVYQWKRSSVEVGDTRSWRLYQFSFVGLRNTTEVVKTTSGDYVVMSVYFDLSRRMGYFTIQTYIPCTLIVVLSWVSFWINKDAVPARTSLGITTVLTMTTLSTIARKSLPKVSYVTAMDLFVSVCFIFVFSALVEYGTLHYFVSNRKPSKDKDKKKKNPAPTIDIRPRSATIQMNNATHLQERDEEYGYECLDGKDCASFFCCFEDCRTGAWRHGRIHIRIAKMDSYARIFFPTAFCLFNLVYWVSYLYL

Take `Cc1onc(-c2ccc(F)cc2)c1COc1ccc(-c2nnc3n2CCOC3)cn1` [Compound 17, 3-(6-((3-(4-fluorophenyl)-5-methylisoxazol-4-yl)methoxy)pyridin-3-yl)-5,6-dihydro-8H-[1,2,4]triazolo[3,4-c][1,4]oxazine]: in series [1] (setting [2]), the solubility (thermodynamic) at 4 h is 33.1 µg/mL (≈ 81.2 µM). Moreover, on α5-GABAA receptor, the inhibition at 0.1 µM amounted to 49%. Consider `Cc1onc(-c2ccc(F)cc2)c1COc1ccc(-c2nnc3n2CCOC3)nn1` [Compound 18, 3-(6-((3-(4-fluorophenyl)-5-methylisoxazol-4-yl)methoxy)pyridazin-3-yl)-5,6-dihydro-8H-[1,2,4]triazolo[3,4-c][1,4]oxazine], for which, at α5-GABAA receptor, the inhibition at 0.1 µM came out at 57%. As for `Cc1onc(-c2ccc(F)cc2)c1COc1ccc(N2CCn3ccnc3C2=O)nn1` [Compound 37, 7-(6-((3-(4-fluorophenyl)-5-methylisoxazol-4-yl)methoxy)pyridazin-3-yl)-6,7-dihydroimidazo[1,2-a]pyrazin-8(5H)-one], the solubility (thermodynamic) at 4 h in series [1] (setting [2]) is 60.2 µg/mL (≈ 143 µM). For the same molecule, on α5-GABAA receptor, the inhibition at 0.1 µM turned out to be 54%. Consider `Cc1onc(-c2ccc(F)cc2)c1COc1cnc(-c2nnc3n2CCOC3)cn1` [Compound 19, 3-(5-((3-(4-fluorophenyl)-5-methylisoxazol-4-yl)methoxy)pyrazin-2-yl)-5,6-dihydro-8H-[1,2,4]triazolo[3,4-c][1,4]oxazine], for which the solubility (thermodynamic) at 4 h in series [1] (setting [2]) is 15.2 µg/mL (≈ 37.3 µM). In addition, the inhibition at 0.1 µM on α5-GABAA receptor amounted to 54%.

The molecule `Cc1onc(-c2ccc(F)cc2)c1COc1cnc(-c2nnc3n2CCCOC3)cn1` [Compound 24, 3-(5-((3-(4-fluorophenyl)-5-methylisoxazol-4-yl)methoxy)pyrazin-2-yl)-6,7-dihydro-5H,9H-[1,2,4]triazolo[3,4-c][1,4]oxazepane] came in with a thermodynamic solubility at 4 h in series [1] (simulated intestinal fluid FaSSIF, pH 7.4, thermodynamic from solid) of 18.3 µg/mL (≈ 43.3 µM). In addition, at α5-GABAA receptor, the inhibition at 0.1 µM came out at 44%. In the case of `Cc1onc(-c2ccc(F)cc2)c1COc1cnc(-c2nnc3n2CCOCC3)cn1` [Compound 33, 3-(5-((3-(4-fluorophenyl)-5-methylisoxazol-4-yl)methoxy)pyrazin-2-yl)-5,6,8,9-tetrahydro-[1,2,4]triazolo[4,3-d][1,4]oxazepane], the solubility (thermodynamic) at 4 h in series [1] (setting [2]) is 39.5 µg/mL (≈ 93.5 µM). For the same molecule, the inhibition at 0.1 µM on α5-GABAA receptor is 48%. For `Cc1onc(-c2ccc(F)cc2)c1COc1ccc(-c2cc3n(c(=O)n2)CCN3C)cn1` [Compound 41, 7-(6-((3-(4-fluorophenyl)-5-methylisoxazol-4-yl)methoxy)pyridin-3-yl)-1-methyl-2,3-dihydroimidazo[1,2-c]pyrimidin-5(1H)-one], the inhibition at 0.1 µM on α5-GABAA receptor amounted to 47%. On the same count and under the same terms, as for `Cc1onc(-c2ccc(F)cc2)c1COc1ccc(-c2cc3n(c(=O)n2)C[C@]24CO[C@H](CN32)C4)cn1` [Compound 38], the figure is 56%. In turn, `Cc1onc(-c2ccc(F)cc2)c1COc1ccc(-c2nnc3n2CCS(=O)(=O)C3)cn1` [Compound 7, 3-(6-((3-(4-fluorophenyl)-5-methylisoxazol-4-yl)methoxy)pyridin-3-yl)-5,6-dihydro-8H-[1,2,4]triazolo[3,4-c][1,4]thiazine 7,7-dioxide] came in with a thermodynamic solubility at 4 h in series [1] (setting [2]) of 157 µg/mL (≈ 344 µM). Moreover, the inhibition at 0.1 µM at α5-GABAA receptor came out at 37%. Consider `Cc1onc(-c2ccc(F)cc2)c1COc1ccc(N2CCN3CCNC(=O)C3C2)nn1` (stereo not shown) [Compound 10, 8-(6-((3-(4-fluorophenyl)-5-methylisoxazol-4-yl)methoxy)pyridazin-3-yl) hexahydro-2H-pyrazino[1,2-a]pyrazin-1 (6H)-one], for which the solubility (thermodynamic) at 4 h in series [1] (setting [2]) was 19.4 µg/mL (≈ 44.1 µM). Besides, on α5-GABAA receptor, the inhibition at 0.1 µM was determined as 66%. Molecule `Cc1onc(-c2ccc(F)cc2)c1COc1cnc(-c2nnc3n2CCC3)cn1` [Compound 23, 4-(((5-(6,7-dihydro-5H-pyrrolo[2,1-c][1,2,4]triazol-3-yl)pyrazin-2-yl)oxy)methyl)-3-(4-fluorophenyl)-5-methylisoxazole] returned a solubility (thermodynamic) at 4 h in series [1] (setting [2]) of 39.6 µg/mL (≈ 101 µM). Moreover, at α5-GABAA receptor, the inhibition at 0.1 µM was found to be 45%.
